In article PMC12553364 (PeerJ, 2025):
Like-named read-outs stand apart in the source and are kept apart here. Blank lines part the entries; values can stand above or below the compound they belong to.

Tests used:
[1] = parameters: method as in Chen, Li & Chen, 2022; conditions: PBPK model, cancer patients; ref Chen, Li & Chen, 2022; cited from earlier work
[2] = cited from earlier work
in vitro [3] = conditions: human, human liver microsomes, pH 7.4, Km of crizotinib, HLM 0.3 mg/mL, 1 mM NADPH, 0.1–50 µM crizotinib
[4] = In vivo pharmacokinetic interaction study in Sprague-Dawley rats; conditions: for AUC(0-inf) / AUC(0-t) / Cmax / Tmax / half-life / CL/F: male, Sprague-Dawley, rat, plasma, po, 25 mg/kg, rat plasma, n = 5, mean ± S.D.; for CL/F: read-out: CLz/F (converted)
Protocol: Protein precipitation was used to remove proteins from plasma and extract the test materials. To this end, 100 µL of plasma sample was combined with 10 µL of the IS working solution (400 ng/mL) and 300 µL of acetonitrile. The mixture was then centrifuged at 13,000 rpm for 10 min at 4 °C to ensure complete protein precipitation. After centrifugation, the supernatant was carefully collected and transferred into a sample vial. Finally, 2.0 µL of sample was injected for UPLC-MS/MS analysis.
The study was approved by Institutional Animal Care and Use Committee of the First Affiliated Hospital of Wenzhou Medical University (Approval No. WYYY-IACUC-AEC-2024-079). The experimental animals were cared in accordance with the Guide for the Care and Use of Laboratory Animals issued by the National Research Council, complying with the ARRIVE guidelines. The 6–8 weeks old Sprague-Dawley rats were obtained from Vital River Laboratory Animal Technology Co., Ltd (China, Zhejiang). The rats were housed at 25 °C and given a 14-day acclimation period under experimental conditions to reduce potential variability.
Due to the similarity between their hepatic enzyme system and humans, SD male rats are widely used in pharmacokinetics ([Riccardi et al., 2018]; [Martignoni, Groothuis & De Kanter, 2006]). A total of 10 SD male rats (200 ± 20 g) were randomly divided into two groups (n = 5): Group A (control group) and Group B (experimental group). The animals were fasted for 12 h prior to the experiment but had free access to water. […] And the concentration of tropifexor was determined to be 20 µg/kg based on body surface area conversion from human administered doses in prior literature ([Chen et al., 2022a]). Experimental group was received of tropifexor (20 µg/kg) via oral gavage, whereas control group was administered of an equivalent volume of corn oil. […] Blood samples were then collected at different time points at 0.5, 1, 1.5, 2, 4, 8, 12, 24, and 48 h after administration. Each blood sample (approximately 0.3 mL) was taken from the caudal veins, and was collected into 1.5 mL heparinized polyethylene tubes. After centrifuged at 13,000 rpm for 10 min, the supernatant was collected and stored at −80 °C. The plasma sample was treated according to 2.4 Pre-treatment of samples before UPLC-MS/MS analysis.
Pharmacokinetic parameters were calculated using the Drug and Statistics (DAS) software (version 3.0 software, Mathematical Pharmacology Professional Committee of China, Shanghai, China) with non-compartment model analyses based on the input data of drug administration route, dosage, drug concentration, and time.

[5] = parameters: method as in Xu et al., 2015; conditions: compared to a single oral dose of 150 mg crizotinib; ref Xu et al., 2015; cited from earlier work
[6] = Stability of analytes in rat plasma (UPLC-MS/MS method validation); assay type: in vitro ADME; conditions: n = 5
Protocol: The sensitivity of the method was reflected by the lower limit of quantification (LLOQ), which was also the lowest quantitative point. The LLOQ and three QC samples were obtained by the same method. […] All chemicals and solutions were stored at −80 °C for further use. Protein precipitation was used to remove proteins from plasma and extract the test materials. […] The mixture was then centrifuged at 13,000 rpm for 10 min at 4 °C to ensure complete protein precipitation. After centrifugation, the supernatant was carefully collected and transferred into a sample vial. Finally, 2.0 µL of sample was injected for UPLC-MS/MS analysis. The calibration curve, selectivity, accuracy, precision, recovery, matrix effect, and stability of the method established in this study were validated according to the FDA Bioanalytical Method Validation Guidance and the guidelines from the National Medical Products Administration (NMPA). Detailed information regarding the evaluation could be found in the Results and Discussion sections.

RLM = tested on: RLM; parameters: method as in Wang et al., 2024; conditions: read-out: Km of crizotinib, ref Wang et al., 2024; cited from earlier work
in vitro [7] = conditions: rat, rat liver microsomes, pH 7.4
Protocol: (§1) Before measurement, the mixture without NADPH was pre-incubated at 37 °C for 5 min. Then, one mM of NADPH was given to incubate the reaction in a water bath with shaking at a rate of 200 times/min. After 30 min, the reaction was terminated by cooling at −80 °C. Next, 300 µL acetonitrile and 10 µL of the IS working solution were added to the mixture. After shaking for 2 min, the supernatant was obtained by centrifugation at 13,000 rpm for 10 min and subjected to UPLC-MS/MS analysis.
(§2) The Km, IC50, the Lineweaver-Burk plot and the mean plasma concentration–time curve were calculated and plotted using GraphPad Prism 9.0 software (GraphPad Software Inc., California, United States).

[8] = tested on: rat liver microsomes (RLM); assay: Enzyme kinetics of crizotinib in rat liver microsomes (Michaelis-Menten)
Protocol: as §1, §2

[9] = parameters: method as in Johnson et al., 2015; conditions: humans; ref Johnson et al., 2015; cited from earlier work
[10] = parameters: method as in Qiu et al., 2016; conditions: ref Qiu et al., 2016, cited from earlier work
[11] = parameters: method as in Ou, 2011; conditions: humans, single oral dose of 250 mg/d; ref Ou, 2011; cited from earlier work
[12] = tested on: crizotinib metabolism in rat liver microsomes (RLM); assay: Inhibition of crizotinib metabolism by tropifexor in RLM (IC50, Lineweaver-Burk); assay type: in vitro ADME
[13] = parameters: method as in Chen et al., 2022b; conditions: ref Chen et al., 2022b; cited from earlier work
[14] = target: crizotinib metabolism in human liver microsomes (HLM) (Homo sapiens, UniProt P08684); assay: Inhibition of crizotinib metabolism by tropifexor in HLM (IC50, Lineweaver-Burk); assay type: in vitro ADME
[15] = parameters: method as in Badman et al., 2020; conditions: healthy volunteers, single dose of up to three mg; ref Badman et al., 2020; cited from earlier work
[16] = group Crizotinib + Tropifexor: oral tropifexor 20 µg/kg 30 min before oral crizotinib 25 mg/kg
[17] = group Crizotinib alone: single oral crizotinib 25 mg/kg
[18] = rats, compared to control group

crizotinib metabolism in human liver microsomes (HLM), sequence (P08684 2-503): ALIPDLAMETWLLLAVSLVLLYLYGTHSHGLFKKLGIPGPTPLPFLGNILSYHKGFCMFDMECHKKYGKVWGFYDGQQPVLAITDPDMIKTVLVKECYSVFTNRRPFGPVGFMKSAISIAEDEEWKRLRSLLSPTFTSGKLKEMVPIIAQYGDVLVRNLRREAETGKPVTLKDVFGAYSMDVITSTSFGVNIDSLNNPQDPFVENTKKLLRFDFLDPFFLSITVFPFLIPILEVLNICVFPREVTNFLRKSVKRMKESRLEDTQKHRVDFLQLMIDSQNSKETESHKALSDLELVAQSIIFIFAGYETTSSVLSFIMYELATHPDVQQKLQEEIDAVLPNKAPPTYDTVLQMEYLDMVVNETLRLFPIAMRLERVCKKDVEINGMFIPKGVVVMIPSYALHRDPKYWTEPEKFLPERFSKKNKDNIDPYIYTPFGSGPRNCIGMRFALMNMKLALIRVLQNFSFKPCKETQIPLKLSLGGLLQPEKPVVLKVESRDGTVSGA

Km at 30 min (in vitro [3]): 15 µM
AUC(0-inf) [4, 16]: 5670 ng·h/mL
AUC(0-t) [4, 16]: 5560 ng·h/mL
Cmax [4, 16]: 326 ± 41 ng/mL
Tmax [4, 16]: 8.8 ± 1.79 h
half-life [4, 16]: 8.23 ± 1.65 h
CL/F [4, 16]: 76 mL/min/kg
AUC(0-inf) [4, 17]: 4140 ng·h/mL
AUC(0-t) [4, 17]: 4100 ng·h/mL
Cmax [4, 17]: 237 ± 45.3 ng/mL
Tmax [4, 17]: 8.8 ± 1.79 h
half-life [4, 17]: 6.83 ± 0.77 h
CL/F [4, 17]: 102 mL/min/kg
increase of AUC(0−t) on co-administration of tropifexor [4, 18]: 35.7%
increase of AUC(0−∞) on co-administration of tropifexor [4, 18]: 36.9%
Stability RE ([6]; 5 ng/mL, 10 °C (4 h)): 0.5%
Stability RE ([6]; 5 ng/mL, 21 days at −80 °C): −1.9%
Stability RE ([6]; 5 ng/mL, room temperature (3 h)): −9.0%
Stability RE ([6]; 5 ng/mL, three freeze-thaw (−80 °C/RT)): −8.3%
Stability RE ([6]; 120 ng/mL, 10 °C (4 h)): 5.9%
Stability RE ([6]; 120 ng/mL, 21 days at −80 °C): 4.7%
Stability RE ([6]; 120 ng/mL, room temperature (3 h)): −6.9%
Stability RE ([6]; 120 ng/mL, three freeze-thaw (−80 °C/RT)): −7.1%
Stability RE ([6]; 240 ng/mL, 10 °C (4 h)): 3.6%
Stability RE ([6]; 240 ng/mL, 21 days at −80 °C): 6.9%
Stability RE ([6]; 240 ng/mL, room temperature (3 h)): −1.6%
Stability RE ([6]; 240 ng/mL, three freeze-thaw (−80 °C/RT)): −7.4%
Km at 30 min (in vitro [7]): 1 µM
Vmax [8]: 0.01457 pmol/min/µg protein
Structure (SMILES): C[C@@H](Oc1cc(-c2cnn(C3CCNCC3)c2)cnc1N)c1c(Cl)ccc(F)c1Cl [crizotinib, Crizotinib]
predicted increase of AUC when co-administered with fluconazole [1]: 58%
predicted increase of AUC when co-administered with itraconazole [1]: 79%
predicted increase of AUC when co-administered with voriconazole [1]: 84%
likelihood of crizotinib-induced hepatotoxicity, patients with pre-existing liver conditions vs without liver disease ([2]; ref Jung et al., 2018): 2.3 times
patients with elevated alanine aminotransferase (ALT) levels ([2]; standard dose of crizotinib, ref Kazandjian et al., 2014): 17%
patients with Grade 1 or 2 liver abnormalities ([2]; typically within two months of treatment, reversible, ref Revol et al., 2020): 30%
increase in AUC on co-administration with ketoconazole [5]: 2.2 fold
Km (RLM): 4.61 ± 0.28 µM
drug excreted unchanged in the feces [9]: approximately 63%
Cmax ([10]; SD rats, oral 24 mg/kg): 309 ± 39.8 ng/mL
Tmax ([10]; SD rats, oral 24 mg/kg): 2.00 ± 0.00 h
oral absolute bioavailability ([10]; rats): 68.6 ± 9.63%
time at which Cmax was observed [11]: 4 h

AUC(0-inf) [4, 16]: 880 ± 269 ng·h/mL
AUC(0-t) [4, 16]: 877 ± 268 ng·h/mL
Cmax [4, 16]: 74.3 ± 26.8 ng/mL
Tmax [4, 16]: 8.8 ± 1.79 h
half-life [4, 16]: 5.78 ± 1.79 h
CL/F [4, 16]: 507 mL/min/kg
AUC(0-inf) [4, 17]: 605 ± 99.1 ng·h/mL
AUC(0-t) [4, 17]: 603 ± 97.7 ng·h/mL
Cmax [4, 17]: 51 ± 14.4 ng/mL
Tmax [4, 17]: 8 h
half-life [4, 17]: 4.82 ± 1.18 h
CL/F [4, 17]: 704 mL/min/kg
decrease of CLz/F on co-administration of tropifexor [4, 18]: 27.9%
Stability RE ([6]; 2 ng/mL, 10 °C (4 h)): 2.2%
Stability RE ([6]; 2 ng/mL, 21 days at −80 °C): 14.7%
Stability RE ([6]; 2 ng/mL, room temperature (3 h)): 9.9%
Stability RE ([6]; 2 ng/mL, three freeze-thaw (−80 °C/RT)): 11.9%
Stability RE ([6]; 40 ng/mL, 10 °C (4 h)): 0.6%
Stability RE ([6]; 40 ng/mL, 21 days at −80 °C): 5.2%
Stability RE ([6]; 40 ng/mL, room temperature (3 h)): 2.0%
Stability RE ([6]; 40 ng/mL, three freeze-thaw (−80 °C/RT)): −0.7%
Stability RE ([6]; 80 ng/mL, 10 °C (4 h)): −0.6%
Stability RE ([6]; 80 ng/mL, 21 days at −80 °C): 5.9%
Stability RE ([6]; 80 ng/mL, room temperature (3 h)): 3.0%
Stability RE ([6]; 80 ng/mL, three freeze-thaw (−80 °C/RT)): −0.7%
Structure (SMILES): C[C@@H](Oc1cc(-c2cnn(C3CCNC(=O)C3)c2)cnc1N)c1c(Cl)ccc(F)c1Cl (some centres unmarked) [2-Keto crizotinib]

Structure (SMILES): O=C(O)c1cc(F)c2nc(N3[C@@H]4CC[C@H]3C[C@@H](OCc3c(-c5ccccc5OC(F)(F)F)noc3C3CC3)C4)sc2c1 [tropifexor, Tropifexor]
inhibition mechanism on crizotinib metabolism [12]: non-competitive and uncompetitive
α [12]: 0.66
Ki ([12]; n = 3): 5.6 µM
αKi ([12]; n = 3): 3.72 µM
IC50 ([12]; read-out: IC50 of tropifexor on crizotinib metabolism, crizotinib at Km): 4.43 µM
decrease in Cmax on co-administration with a CYP3A4 inhibitor [13]: 9%
decrease in Cmax on co-administration with the CYP3A4 inducer rifampin [13]: 55%
inhibition mechanism on crizotinib metabolism [14]: competitive and non-competitive
α [14]: 2.71
IC50 at 0.5 h ([14]; human, liver microsomes, pH 7.4, IC50 of tropifexor on crizotinib metabolism, crizotinib at Km): 4.3 µM
Ki at 0.5 h ([14]; human, liver microsomes, pH 7.4, n = 3): 4.93 µM
αKi ([14]; n = 3): 13.38 µM
safety and tolerability [15]: safe and well-tolerated
